Patent US10543212B2, “Substituted amines for treating cardiac diseases” (Cardurion Pharmaceuticals, LLC, priority 2017, dated 2020)

These compounds were tested against T1, Full-length, GST-tagged, human CaMKIIδ (Homo sapiens, UniProt Q13557) (assay: CaMKIIδ binding assay (TR-FRET with BODIPY-labeled probe ligand)). Settings: CaMKIIδ binding assay, results of Table 2.
T1 construct: Full-Length, Glutathione-S-Transferase(GST)-Tagged, Human CaMKIIδ was purchased from Carna Biosciences; purchased Carna Biosciences 02-111
T1 sequence (Q13557 1-478 isoform Q13557-12): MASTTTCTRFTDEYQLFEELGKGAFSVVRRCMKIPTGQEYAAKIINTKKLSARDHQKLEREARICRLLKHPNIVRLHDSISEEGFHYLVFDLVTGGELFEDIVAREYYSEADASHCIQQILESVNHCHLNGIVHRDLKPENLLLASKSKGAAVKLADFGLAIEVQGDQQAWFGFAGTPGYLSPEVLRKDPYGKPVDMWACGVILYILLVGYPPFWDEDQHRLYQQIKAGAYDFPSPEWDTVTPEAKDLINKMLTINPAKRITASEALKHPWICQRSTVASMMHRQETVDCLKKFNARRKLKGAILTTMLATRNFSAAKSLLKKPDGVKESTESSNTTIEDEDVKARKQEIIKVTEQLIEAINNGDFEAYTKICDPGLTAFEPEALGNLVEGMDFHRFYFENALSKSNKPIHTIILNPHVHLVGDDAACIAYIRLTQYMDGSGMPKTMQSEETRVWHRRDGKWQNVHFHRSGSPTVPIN
Procedure, shortened: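 Compounds were tested as 4-fold, eight-point series for 1 hr at room temperature, and IC50 was obtained by logistic fitting against a 3 μM parent-compound control. Signal came from displacement of a 300 nM BODIPY ligand from 0.5 nM GST-CaMKIIδ, detected via Tb-anti-GST in calmodulin/Ca2+ (pH 7.6).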
C[C@@H](Cn1cnnn1)Oc1cc(-c2cnc(Nc3cn(C4CCN(C5CCC(F)(F)CC5)CC4)nc3C(F)(F)F)nc2)ccc1Cl [Example 555, (S)-5-(3-((1-(1H-tetrazol-1-yl)propan-2-yl)oxy)-4-chlorophenyl)-N-(1-(1-(4,4-difluorocyclohexyl)piperidin-4-yl)-3-(trifluoromethyl)-1H-pyrazol-4-yl)pyrimidin-2-amine] gave an IC50 of less than 10 nM.
C[C@@H](Cn1cnnn1)Oc1cc(-c2cnc(Nc3cn(C4CCN(C5CCN(C6CC6)CC5)CC4)nc3C(F)(F)F)nc2)ccc1Cl [Example 558, (S)-5-(3-((1-(1H-tetrazol-1-yl)propan-2-yl)oxy)-4-chlorophenyl)-N-(1-(1′-cyclopropyl-[1,4′-bipiperidin]-4-yl)-3-(trifluoromethyl)-1H-pyrazol-4-yl)pyrimidin-2-amine] was tested, and the IC50 was less than 10 nM.
C[C@@H](Cn1cnnn1)Oc1cc(-c2cnc(Nc3ccc(N4CCC(N5CCOCC5)CC4)cc3C(N)=O)nc2)ccc1Cl [Example 444, (S)-2-((5-(3-((1-(1H-tetrazol-1-yl)propan-2-yl)oxy)-4-chlorophenyl)pyrimidin-2-yl)amino)-5-(4-morpholinopiperidin-1-yl)benzamide] gave an IC50 of no less than 100 nM.
Compound COc1ccc(CN2CCS(=O)(=O)CC2)cc1Nc1ncc(-c2ccc(Cl)c(O[C@@H](C)Cn3cnnn3)c2)cn1 [Example 449, (S)-4-(3-((5-(3-((1-(1H-tetrazol-1-yl)propan-2-yl)oxy)-4-chlorophenyl)pyrimidin-2-yl)amino)-4-methoxybenzyl)thiomorpholine 1,1-dioxide] has an IC50 of 10 to 100 nM.
C[C@@H](Cn1cnnn1)Oc1cc(-c2cnc(Nc3ccc4c(c3)CCN4)nc2)ccc1Cl [Example 451, (S)-N-(5-(3-((1-(1H-tetrazol-1-yl)propan-2-yl)oxy)-4-chlorophenyl)pyrimidin-2-yl)indolin-5-amine] was tested, and the IC50 was 10 to 100 nM.
In the case of COCC(=O)N1CCc2cc(Nc3ncc(-c4ccc(Cl)c(O[C@@H](C)Cn5cnnn5)c4)cn3)c(OC)cc2C1 [Example 469, (S)-1-(6-((5-(3-((1-(1H-tetrazol-1-yl)propan-2-yl)oxy)-4-chlorophenyl)pyrimidin-2-yl)amino)-7-methoxy-3,4-dihydroisoquinolin-2(1H)-yl)-2-methoxyethan-1-one], the IC50 is reported as 10 to 100 nM.
For CCN(C)CC(=O)N1CCc2cc(Nc3ncc(-c4ccc(Cl)c(O[C@@H](C)Cn5cnnn5)c4)cn3)c(OC)cc2C1 [Example 514, (S)-1-(6-((5-(3-((1-(1H-tetrazol-1-yl)propan-2-yl)oxy)-4-chlorophenyl)pyrimidin-2-yl)amino)-7-methoxy-3,4-dihydroisoquinolin-2(1H)-yl)-2-(ethyl(methyl)amino)ethan-1-one], the IC50 was less than 10 nM.
In the case of COc1cc2c(cc1Nc1ncc(-c3ccc(Cl)c(O[C@@H](C)Cn4cnnn4)c3)cn1)CCNC2 [Example 465, (S)-N-(5-(3-((1-(1H-tetrazol-1-yl)propan-2-yl)oxy)-4-chlorophenyl)pyrimidin-2-yl)-7-methoxy-1,2,3,4-tetrahydroisoquinolin-6-amine], the IC50 is reported as less than 10 nM.
Work on COc1cc2c(cc1Nc1ncc(-c3ccc(Cl)c(O[C@@H](C)Cn4cnnn4)c3)cn1)CCN(CC(C)=O)C2 [Example 479, (S)-1-(6-((5-(3-((1-(1H-tetrazol-1-yl)propan-2-yl)oxy)-4-chlorophenyl)pyrimidin-2-yl)amino)-7-methoxy-3,4-dihydroisoquinolin-2(1H)-yl)propan-2-one] yielded an IC50 of less than 10 nM.
In the case of C[C@@H](Cn1cnnn1)Oc1cc(-c2cnc(Nc3cn(CC4CCN(C5COC5)C4)nc3C(F)(F)F)nc2)ccc1Cl (stereo partly drawn) [Example 574, 5-(3-(((S)-1-(1H-tetrazol-1-yl)propan-2-yl)oxy)-4-chlorophenyl)-N-(1-((1-(oxetan-3-yl)pyrrolidin-3-yl)methyl)-3-(trifluoromethyl)-1H-pyrazol-4-yl)pyrimidin-2-amine], the IC50 is reported as less than 10 nM.

Same assay, conditions: CaMKIIδ binding assay; activity class per Table 2
CC(C)c1nn(C2CC3(C2)CN(C2COCOC2)C3)cc1Nc1ncc(-c2ccc(Cl)c(O[C@@H](C)Cn3cnnn3)c2)cn1 [Example 1013, (S)-N-(1-(2-(1,3-dioxan-5-yl)-2-azaspiro[3.3]heptan-6-yl)-3-isopropyl-1H-pyrazol-4-yl)-5-(3-((1-(1H-tetrazol-1-yl)propan-2-yl)oxy)-4-chlorophenyl)pyrimidin-2-amine] was tested, and the IC50 was less than 10 nM.
COc1ccc(-n2cc(Nc3ncc(-c4ccc(Cl)c(O[C@@H](C)Cn5cnnn5)c4)cn3)c(OCC(F)(F)F)n2)cn1 [Example 901, (S)-5-(3-((1-(1H-tetrazol-1-yl)propan-2-yl)oxy)-4-chlorophenyl)-N-(1-(6-methoxypyridin-3-yl)-3-(2,2,2-trifluoroethoxy)-1H-pyrazol-4-yl)pyrimidin-2-amine] gave an IC50 of 10 to 100 nM.
With C[C@@H](Cn1cnnn1)Oc1cc(-c2cnc(Nc3cn(C4CC5(C4)CN(C4COC(C)(C)OC4)C5)nc3OCC(F)(F)F)nc2)ccc1Cl [Example 932, (S)-5-(3-((1-(1H-tetrazol-1-yl)propan-2-yl)oxy)-4-chlorophenyl)-N-(1-(2-(2,2-dimethyl-1,3-dioxan-5-yl)-2-azaspiro[3.3]heptan-6-yl)-3-(2,2,2-trifluoroethoxy)-1H-pyrazol-4-yl)pyrimidin-2-amine] the IC50 was less than 10 nM.
CC(Cn1cnnn1)Oc1cc(-c2cnc(Nc3cn(CC4(O)CCC(C)(O)CC4)nc3OCC(F)(F)F)nc2)ccc1Cl [Example 924, cis-1-((4-((5-(3-(((S)-1-(1H-tetrazol-1-yl)propan-2-yl)oxy)-4-chlorophenyl)pyrimidin-2-yl)amino)-3-(2,2,2-trifluoroethoxy)-1H-pyrazol-1-yl)methyl)-4-methylcyclohexane-1,4-diol] was tested, and the IC50 was less than 10 nM.

Same assay, conditions: Table 2; CaMKIIδ binding assay, activity given as class A/B/C
Compound C[C@@H](Cn1cc(F)cn1)Oc1cc(-c2cnc(Nc3cn([C@H]4CC[C@@H](N5CCOCC5)CC4)nc3OCC(F)(F)F)nc2)ccc1C#N [Example 829, 2-(((S)-1-(4-fluoro-1H-pyrazol-1-yl)propan-2-yl)oxy)-4-(2-((1-(cis-4-morpholinocyclohexyl)-3-(2,2,2-trifluoroethoxy)-1H-pyrazol-4-yl)amino)pyrimidin-5-yl)benzonitrile] has an IC50 of 10 to 100 nM.
Work on C[C@@H](Cn1cnnn1)Oc1cc(-c2cnc(Nc3cn([C@H]4CC[C@@H](N5CC6(COC6)C5)CC4)nc3C(F)(F)F)nc2)ccc1Cl [Example 823, 5-(3-(((S)-1-(1H-tetrazol-1-yl)propan-2-yl)oxy)-4-chlorophenyl)-N-(1-(cis-4-(2-oxa-6-azaspiro[3.3]heptan-6-yl)cyclohexyl)-3-(trifluoromethyl)-1H-pyrazol-4-yl)pyrimidin-2-amine] yielded an IC50 of less than 10 nM.
With C[C@@H](Cn1cnnn1)Oc1cc(-c2cnc(Nc3cn([C@H]4CC[C@H](N5CC6(COC6)C5)CC4)nc3OCC(F)F)nc2)ccc1Cl [Example 827, 5-(3-(((S)-1-(1H-tetrazol-1-yl)propan-2-yl)oxy)-4-chlorophenyl)-N-(1-(trans-4-(2-oxa-6-azaspiro[3.3]heptan-6-yl)cyclohexyl)-3-(2,2-difluoroethoxy)-1H-pyrazol-4-yl)pyrimidin-2-amine] the IC50 was less than 10 nM.

Same assay, conditions: Table 2; activity class for CaMKIIδ
Compound CC(C(N)=O)n1cc(Nc2ncc(-c3ccc(Cl)c(O[C@@H](C)Cn4cnnn4)c3)cn2)c(C(F)(F)F)n1 (stereo partly drawn) [Example 713, 2-(4-((5-(3-(((S)-1-(1H-tetrazol-1-yl)propan-2-yl)oxy)-4-chlorophenyl)pyrimidin-2-yl)amino)-3-(trifluoromethyl)-1H-pyrazol-1-yl)propanamide] has an IC50 of less than 10 nM.
With Cc1c(Nc2ncc(-c3ccc(Cl)c(O[C@@H](C)Cn4cnnn4)c3)cn2)cnn1C [Example 731, (S)-5-(3-((1-(1H-tetrazol-1-yl)propan-2-yl)oxy)-4-chlorophenyl)-N-(1,5-dimethyl-1H-pyrazol-4-yl)pyrimidin-2-amine] the IC50 was 10 to 100 nM.
With C[C@@H](Cn1cnnn1)Oc1cc(-c2cnc(Nc3cn(Cc4ccccn4)nc3C(F)(F)F)nc2)ccc1Cl [Example 707, (S)-5-(3-((1-(1H-tetrazol-1-yl)propan-2-yl)oxy)-4-chlorophenyl)-N-(1-(pyridin-2-ylmethyl)-3-(trifluoromethyl)-1H-pyrazol-4-yl)pyrimidin-2-amine] the IC50 was 10 to 100 nM.
COc1nc(N2CCNCC2)ccc1Nc1ncc(-c2ccc(Cl)c(O[C@@H](C)Cn3cnnn3)c2)cn1 [Example 614, (S)-5-(3-((1-(1H-tetrazol-1-yl)propan-2-yl)oxy)-4-chlorophenyl)-N-(2-methoxy-6-(piperazin-1-yl)pyridin-3-yl)pyrimidin-2-amine] gave an IC50 of less than 10 nM.
With COc1nc(N2CCN(C3CC3)CC2)ccc1Nc1ncc(-c2ccc(Cl)c(O[C@@H](C)Cn3cnnn3)c2)cn1 [Example 671, (S)-5-(3-((1-(1H-tetrazol-1-yl)propan-2-yl)oxy)-4-chlorophenyl)-N-(6-(4-cyclopropylpiperazin-1-yl)-2-methoxypyridin-3-yl)pyrimidin-2-amine] the IC50 was less than 10 nM.
Work on CCn1cc(Nc2ncc(-c3ccc(Cl)c(O[C@@H](C)Cn4cnnn4)c3)cn2)c(OCC(F)(F)F)n1 [Example 700, (S)-5-(3-((1-(1H-tetrazol-1-yl)propan-2-yl)oxy)-4-chlorophenyl)-N-(1-ethyl-3-(2,2,2-trifluoroethoxy)-1H-pyrazol-4-yl)pyrimidin-2-amine] yielded an IC50 of less than 10 nM.
For COc1nc(N2CCN(C(=O)C(F)(F)F)CC2)ccc1Nc1ncc(-c2ccc(Cl)c(O[C@@H](C)Cn3cnnn3)c2)cn1 [Example 638, (S)-1-(4-(5-((5-(3-((1-(1H-tetrazol-1-yl)propan-2-yl)oxy)-4-chlorophenyl)pyrimidin-2-yl)amino)-6-methoxypyridin-2-yl)piperazin-1-yl)-2,2,2-trifluoroethan-1-one], the IC50 was no less than 100 nM.
Work on COc1cc(N2CCOC(CN(C)C)C2)ccc1Nc1ncc(-c2ccc(Cl)c(O[C@@H](C)Cn3cnnn3)c2)cn1 (stereo partly drawn) [Example 615, 5-(3-(((S)-1-(1H-tetrazol-1-yl)propan-2-yl)oxy)-4-chlorophenyl)-N-(4-(2-((dimethylamino)methyl)morpholino)-2-methoxyphenyl)pyrimidin-2-amine] yielded an IC50 of less than 10 nM.
